Assay [1] addresses T1, Peroxisome proliferator-activated receptor gamma (Homo sapiens, UniProt P37231).
T1 sequence (P37231 whole entry): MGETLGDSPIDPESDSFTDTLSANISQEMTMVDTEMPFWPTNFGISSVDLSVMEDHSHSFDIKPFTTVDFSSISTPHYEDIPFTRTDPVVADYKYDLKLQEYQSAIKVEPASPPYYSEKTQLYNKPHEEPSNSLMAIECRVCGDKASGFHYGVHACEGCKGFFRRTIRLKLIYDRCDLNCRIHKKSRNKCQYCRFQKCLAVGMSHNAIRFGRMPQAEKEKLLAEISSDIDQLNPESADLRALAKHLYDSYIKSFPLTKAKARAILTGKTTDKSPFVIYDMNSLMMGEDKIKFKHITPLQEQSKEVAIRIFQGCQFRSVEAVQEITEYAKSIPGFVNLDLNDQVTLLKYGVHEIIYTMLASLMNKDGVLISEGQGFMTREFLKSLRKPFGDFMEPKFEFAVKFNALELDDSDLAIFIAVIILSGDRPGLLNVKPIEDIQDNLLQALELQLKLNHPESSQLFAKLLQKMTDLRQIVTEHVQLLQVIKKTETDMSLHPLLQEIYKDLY
It counts as functional.

The next assay concerns the target Histamine H1 receptor (Homo sapiens, UniProt P35367). It counts as functional, cell-based.
Assay [2] addresses T1, Peroxisome proliferator-activated receptor gamma. It counts as functional. The source holds these as a separate data set.
Assay [3] deals with 5-hydroxytryptamine receptor 2A (Homo sapiens, UniProt P28223).
Assay [4] addresses T2, 5-hydroxytryptamine receptor 1A (Homo sapiens, UniProt P08908).
T2 sequence (P08908 whole entry): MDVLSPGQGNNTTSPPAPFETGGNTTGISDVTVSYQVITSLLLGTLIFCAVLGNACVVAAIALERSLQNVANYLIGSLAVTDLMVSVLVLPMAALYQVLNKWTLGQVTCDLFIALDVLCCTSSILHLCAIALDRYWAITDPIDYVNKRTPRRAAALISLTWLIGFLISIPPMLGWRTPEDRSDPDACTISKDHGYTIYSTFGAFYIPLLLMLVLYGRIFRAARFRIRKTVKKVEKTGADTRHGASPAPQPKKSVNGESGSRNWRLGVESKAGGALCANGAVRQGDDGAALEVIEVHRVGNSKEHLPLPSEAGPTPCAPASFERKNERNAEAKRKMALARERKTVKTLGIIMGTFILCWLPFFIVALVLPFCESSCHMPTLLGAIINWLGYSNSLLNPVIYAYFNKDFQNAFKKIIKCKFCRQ

The target of assay [5] is T3, Corticotropin-releasing factor receptor 2 (Homo sapiens, UniProt Q13324).
T3 sequence (Q13324 whole entry): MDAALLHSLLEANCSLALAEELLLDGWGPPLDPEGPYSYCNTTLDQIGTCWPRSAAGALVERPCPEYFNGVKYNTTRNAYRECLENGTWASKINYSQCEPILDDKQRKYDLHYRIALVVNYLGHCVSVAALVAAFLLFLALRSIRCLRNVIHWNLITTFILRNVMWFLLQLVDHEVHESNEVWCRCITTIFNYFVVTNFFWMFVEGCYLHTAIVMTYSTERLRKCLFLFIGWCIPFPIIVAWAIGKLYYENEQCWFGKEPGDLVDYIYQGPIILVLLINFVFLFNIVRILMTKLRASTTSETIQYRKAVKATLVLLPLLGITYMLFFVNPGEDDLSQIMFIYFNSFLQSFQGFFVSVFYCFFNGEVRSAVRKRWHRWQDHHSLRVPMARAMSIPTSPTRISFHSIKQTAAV

In another assay the target is Glucagon receptor (Homo sapiens, UniProt P47871).
For a further assay, the target named is T4, Progesterone receptor (Homo sapiens, UniProt P06401).
T4 sequence (P06401 whole entry): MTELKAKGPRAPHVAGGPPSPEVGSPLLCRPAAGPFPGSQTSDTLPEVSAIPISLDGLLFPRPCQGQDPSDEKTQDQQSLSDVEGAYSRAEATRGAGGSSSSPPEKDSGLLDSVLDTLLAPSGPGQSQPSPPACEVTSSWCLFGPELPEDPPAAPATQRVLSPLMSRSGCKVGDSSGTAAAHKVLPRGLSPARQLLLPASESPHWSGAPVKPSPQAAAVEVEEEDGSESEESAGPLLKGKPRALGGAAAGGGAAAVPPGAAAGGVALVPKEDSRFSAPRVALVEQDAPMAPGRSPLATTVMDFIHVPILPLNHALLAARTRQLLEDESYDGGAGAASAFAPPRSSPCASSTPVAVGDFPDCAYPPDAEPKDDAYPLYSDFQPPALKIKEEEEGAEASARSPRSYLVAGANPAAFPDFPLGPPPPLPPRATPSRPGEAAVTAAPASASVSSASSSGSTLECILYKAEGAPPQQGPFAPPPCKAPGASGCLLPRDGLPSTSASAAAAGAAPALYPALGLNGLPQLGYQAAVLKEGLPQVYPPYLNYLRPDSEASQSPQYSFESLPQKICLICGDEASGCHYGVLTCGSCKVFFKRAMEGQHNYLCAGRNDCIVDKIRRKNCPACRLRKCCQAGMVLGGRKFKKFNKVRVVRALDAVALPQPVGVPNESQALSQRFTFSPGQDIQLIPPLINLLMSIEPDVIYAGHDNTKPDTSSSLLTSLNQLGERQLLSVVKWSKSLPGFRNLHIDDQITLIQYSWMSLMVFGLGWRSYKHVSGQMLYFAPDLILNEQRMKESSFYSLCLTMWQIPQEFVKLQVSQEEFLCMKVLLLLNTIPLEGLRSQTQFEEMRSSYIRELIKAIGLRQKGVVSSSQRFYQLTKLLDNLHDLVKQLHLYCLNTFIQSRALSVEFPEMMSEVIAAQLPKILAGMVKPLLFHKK

A further assay has as its target T5, D(4) dopamine receptor (Homo sapiens, UniProt P21917).
T5 sequence (P21917 whole entry): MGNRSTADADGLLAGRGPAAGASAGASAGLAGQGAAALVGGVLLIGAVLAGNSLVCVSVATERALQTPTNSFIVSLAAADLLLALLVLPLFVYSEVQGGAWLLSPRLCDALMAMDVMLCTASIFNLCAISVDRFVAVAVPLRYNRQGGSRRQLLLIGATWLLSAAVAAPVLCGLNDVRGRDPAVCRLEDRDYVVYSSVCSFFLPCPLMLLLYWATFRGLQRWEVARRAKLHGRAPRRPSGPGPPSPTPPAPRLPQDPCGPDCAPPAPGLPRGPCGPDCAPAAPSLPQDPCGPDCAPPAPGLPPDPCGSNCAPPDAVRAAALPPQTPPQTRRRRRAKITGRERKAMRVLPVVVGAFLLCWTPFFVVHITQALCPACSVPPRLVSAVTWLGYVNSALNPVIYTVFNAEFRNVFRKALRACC

The target of assay [6] is Sodium channel protein type 5 subunit alpha (Homo sapiens, UniProt Q14524). It counts as functional, cell-based.
Further: assay procedure not described here.

Sequence of 5-hydroxytryptamine receptor 2A (P28223 whole entry): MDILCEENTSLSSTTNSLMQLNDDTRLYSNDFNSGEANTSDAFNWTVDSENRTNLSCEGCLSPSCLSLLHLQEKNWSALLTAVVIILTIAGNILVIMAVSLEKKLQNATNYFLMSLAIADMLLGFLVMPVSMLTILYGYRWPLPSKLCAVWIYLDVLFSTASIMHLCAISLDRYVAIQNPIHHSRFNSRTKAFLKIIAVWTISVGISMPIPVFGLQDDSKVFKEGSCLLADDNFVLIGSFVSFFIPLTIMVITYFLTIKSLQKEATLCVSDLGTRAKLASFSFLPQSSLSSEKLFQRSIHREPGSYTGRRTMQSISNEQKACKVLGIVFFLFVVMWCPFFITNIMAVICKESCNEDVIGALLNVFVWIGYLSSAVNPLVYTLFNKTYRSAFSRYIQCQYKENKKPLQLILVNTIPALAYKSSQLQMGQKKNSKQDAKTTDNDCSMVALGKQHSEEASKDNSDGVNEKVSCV
Sequence of Histamine H1 receptor (P35367 whole entry): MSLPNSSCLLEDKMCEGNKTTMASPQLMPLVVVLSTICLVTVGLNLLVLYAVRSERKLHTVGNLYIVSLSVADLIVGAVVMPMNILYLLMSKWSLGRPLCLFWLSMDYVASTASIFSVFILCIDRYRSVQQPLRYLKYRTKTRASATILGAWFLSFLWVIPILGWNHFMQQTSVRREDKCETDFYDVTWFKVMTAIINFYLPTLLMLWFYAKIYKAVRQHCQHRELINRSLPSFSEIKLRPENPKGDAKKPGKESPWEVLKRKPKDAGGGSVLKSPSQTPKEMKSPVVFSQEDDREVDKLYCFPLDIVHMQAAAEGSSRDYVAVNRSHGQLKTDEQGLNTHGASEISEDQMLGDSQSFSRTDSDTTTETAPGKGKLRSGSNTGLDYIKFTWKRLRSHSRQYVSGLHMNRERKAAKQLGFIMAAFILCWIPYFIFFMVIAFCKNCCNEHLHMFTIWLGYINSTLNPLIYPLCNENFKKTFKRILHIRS
Sequence of Glucagon receptor (P47871 whole entry): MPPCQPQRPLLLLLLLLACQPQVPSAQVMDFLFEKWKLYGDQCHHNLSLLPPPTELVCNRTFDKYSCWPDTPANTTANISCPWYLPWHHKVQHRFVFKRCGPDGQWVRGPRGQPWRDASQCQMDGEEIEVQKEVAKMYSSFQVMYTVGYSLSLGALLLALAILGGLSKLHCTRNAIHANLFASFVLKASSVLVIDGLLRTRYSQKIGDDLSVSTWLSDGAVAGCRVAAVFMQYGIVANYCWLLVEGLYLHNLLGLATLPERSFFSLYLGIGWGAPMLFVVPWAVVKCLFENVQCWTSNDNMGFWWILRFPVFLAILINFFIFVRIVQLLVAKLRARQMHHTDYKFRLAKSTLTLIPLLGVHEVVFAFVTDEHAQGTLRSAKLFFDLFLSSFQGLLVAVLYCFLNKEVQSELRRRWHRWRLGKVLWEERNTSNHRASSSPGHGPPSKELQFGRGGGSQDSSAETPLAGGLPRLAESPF
Sequence of Sodium channel protein type 5 subunit alpha (Q14524 whole entry): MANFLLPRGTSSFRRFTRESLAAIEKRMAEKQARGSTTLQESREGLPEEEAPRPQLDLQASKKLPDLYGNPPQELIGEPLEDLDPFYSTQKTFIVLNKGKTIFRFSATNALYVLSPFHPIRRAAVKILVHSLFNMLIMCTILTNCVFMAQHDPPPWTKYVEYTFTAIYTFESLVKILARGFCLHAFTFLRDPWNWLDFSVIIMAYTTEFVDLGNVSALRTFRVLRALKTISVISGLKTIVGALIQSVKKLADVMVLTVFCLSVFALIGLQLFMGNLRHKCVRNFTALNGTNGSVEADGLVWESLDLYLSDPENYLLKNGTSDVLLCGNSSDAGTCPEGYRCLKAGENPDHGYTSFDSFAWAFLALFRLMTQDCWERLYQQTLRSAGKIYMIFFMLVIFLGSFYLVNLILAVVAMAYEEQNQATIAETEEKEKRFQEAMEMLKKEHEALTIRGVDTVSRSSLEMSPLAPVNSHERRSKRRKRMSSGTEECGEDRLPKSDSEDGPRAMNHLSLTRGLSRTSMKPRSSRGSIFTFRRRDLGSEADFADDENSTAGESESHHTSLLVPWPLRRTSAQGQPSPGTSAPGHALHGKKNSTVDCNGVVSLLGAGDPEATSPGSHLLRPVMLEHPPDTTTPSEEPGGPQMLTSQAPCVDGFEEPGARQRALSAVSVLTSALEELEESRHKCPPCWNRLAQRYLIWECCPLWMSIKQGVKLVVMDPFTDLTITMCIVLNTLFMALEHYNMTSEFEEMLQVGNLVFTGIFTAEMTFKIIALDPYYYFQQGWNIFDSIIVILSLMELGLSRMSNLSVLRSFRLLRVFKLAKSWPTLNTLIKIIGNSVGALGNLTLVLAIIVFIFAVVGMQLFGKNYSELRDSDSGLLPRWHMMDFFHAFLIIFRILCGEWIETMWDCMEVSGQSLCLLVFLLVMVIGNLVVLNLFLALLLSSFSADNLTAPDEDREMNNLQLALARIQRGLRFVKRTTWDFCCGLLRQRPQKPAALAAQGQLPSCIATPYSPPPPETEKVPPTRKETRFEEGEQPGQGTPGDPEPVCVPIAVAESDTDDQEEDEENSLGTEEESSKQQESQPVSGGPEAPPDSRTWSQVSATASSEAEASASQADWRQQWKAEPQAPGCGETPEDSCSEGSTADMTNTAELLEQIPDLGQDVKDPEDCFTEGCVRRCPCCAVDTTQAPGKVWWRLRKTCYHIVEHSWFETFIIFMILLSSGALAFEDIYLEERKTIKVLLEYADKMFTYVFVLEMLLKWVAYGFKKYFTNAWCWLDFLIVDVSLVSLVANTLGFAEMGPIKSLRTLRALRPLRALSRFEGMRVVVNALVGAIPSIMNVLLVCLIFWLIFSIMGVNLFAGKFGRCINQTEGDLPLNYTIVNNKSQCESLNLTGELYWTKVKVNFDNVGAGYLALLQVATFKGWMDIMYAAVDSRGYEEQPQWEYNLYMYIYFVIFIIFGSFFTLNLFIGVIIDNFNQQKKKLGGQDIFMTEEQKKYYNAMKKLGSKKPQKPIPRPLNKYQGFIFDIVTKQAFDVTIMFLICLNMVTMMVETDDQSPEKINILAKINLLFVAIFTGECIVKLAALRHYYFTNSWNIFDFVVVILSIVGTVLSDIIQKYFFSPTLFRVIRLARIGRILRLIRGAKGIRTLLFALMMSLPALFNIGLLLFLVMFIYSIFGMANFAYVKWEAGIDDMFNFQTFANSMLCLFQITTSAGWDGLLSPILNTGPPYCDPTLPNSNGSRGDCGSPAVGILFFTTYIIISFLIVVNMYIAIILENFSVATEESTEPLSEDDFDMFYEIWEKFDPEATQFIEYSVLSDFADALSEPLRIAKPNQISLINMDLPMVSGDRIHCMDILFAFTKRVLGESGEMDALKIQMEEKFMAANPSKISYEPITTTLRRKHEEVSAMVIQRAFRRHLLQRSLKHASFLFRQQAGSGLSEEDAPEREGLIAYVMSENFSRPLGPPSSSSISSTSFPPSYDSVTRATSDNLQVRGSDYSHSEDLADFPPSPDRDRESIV

On to `CS(=O)(=O)NC(=O)CCC/C=C\C[C@H]1C(=O)C[C@@H](O)[C@@H]1/C=C/[C@@H](O)COc1ccccc1` [SULPROSTONE], for which the AC50 (in assay [1]; on Histamine H1 receptor; in assay [2]) was above 30 µM throughout.

For `CCN(CC)CCCN(c1ccccc1)C1Cc2ccccc2C1` [APRINDINE], the AC50 (in assay [1]; on Histamine H1 receptor; in [2]) was above 30 µM in each case.

Regarding `NS(=O)(=O)c1ccc(N2CCCCS2(=O)=O)cc1`, the AC50 (in general, the midpoint of the concentration-response curve, whichever way the signal moves) on Histamine H1 receptor was above 30 µM.

On to `COc1ccc2c3c1O[C@H]1C(=O)CC[C@H]4[C@@H](C2)N(C)CC[C@]314` [HYDROCODONE], for which the AC50 was above 10 µM in assay [3]; above 10 µM in assay [4]; above 30 µM in [5]; above 30 µM on Glucagon receptor; above 30 µM on Progesterone receptor; above 10 µM on D(4) dopamine receptor. Moreover, the AC50 in assay [6] was above 50 µM.

Regarding `COc1ccc(C(Cl)=C(c2ccc(OC)cc2)c2ccc(OC)cc2)cc1` [CHLOROTRIANISENE], the AC50 on Histamine H1 receptor is above 30 µM.

Take `CCCCCCCC(=O)CC[C@@H]1[C@@H](C/C=C\CCCC(=O)O)[C@@H](O)C[C@H]1O` [UNOPROSTONE]: the AC50 in assay [1] is above 30 µM; on Histamine H1 receptor it was above 30 µM; in assay [2], above 30 µM; in assay [6], above 50 µM.

With `CCC(=O)O[C@H](CC(=O)O)C[N+](C)(C)C` [LEVOCARNITINE PROPIONATE], the AC50 (in [1]; on Histamine H1 receptor; in [2]) was above 30 µM throughout.

With `Cc1ccc(-c2ncc(Cl)cc2-c2ccc(S(C)(=O)=O)cc2)cn1` [ETORICOXIB], the AC50 on Histamine H1 receptor was above 30 µM; in [3], above 10 µM; in [4] it was above 10 µM; in assay [5], above 30 µM; on Glucagon receptor it was above 30 µM; at Progesterone receptor, above 30 µM. Further, the AC50 at D(4) dopamine receptor was above 10 µM.

Take `Oc1cc(O)c2c(c1)O[C@H](c1ccc(O)c(O)c1)[C@@H](O)C2` [CIANIDANOL]: the AC50 is above 30 µM on Histamine H1 receptor; above 10 µM in assay [3]; above 10 µM in assay [4]; above 30 µM in [5]; above 30 µM on Glucagon receptor; above 30 µM on Progesterone receptor.

Take `CC1NCCOC1c1ccccc1` (centres undefined) [PHENMETRAZINE]: the AC50 at Histamine H1 receptor is above 30 µM; in [3], above 10 µM; in assay [4] it was above 10 µM; in assay [5], above 30 µM; on Glucagon receptor, above 30 µM; on Progesterone receptor, above 30 µM.

As for `O=C(O)c1nn(Cc2ccc(Cl)cc2Cl)c2ccccc12` [LONIDAMINE], the AC50 (in [1]; on Histamine H1 receptor; in assay [2]) was above 30 µM each time.

(Values after ChEMBL document CHEMBL5291721, “A preclinical secondary pharmacology resource illuminates target-adverse drug reaction associations of marketed drugs” (Nat Commun, 2023).)
